Assays:
NCI-H1299 [1] = test: hTERT-SEAP (Human telomerase reverse transcriptase-SEAP) activity in non-small cell lung cancer H1299 cell at 300.0 uM concentration and level of cell viability determined in MTT assay; type: functional
BJ [2] = test: Compound was tested for human telomerase reverse transcriptase-SEAP (hTERT-SEAP) activity in immortalized hTERT-BJI at 30.0 uM concentration; type: functional
NCI-H1299 [3] = test: Compound was tested for human telomerase reverse transcriptase-SEAP (hTERT-SEAP) activity in non-small cell lung cancer H1299 cell at 300.0 uM concentration; type: functional
NCI-H1299 [4] = test: hTERT-SEAP (Human telomerase reverse transcriptase-SEAP) activity in non-small cell lung cancer H1299 cell at 30.0 uM concentration and level of cell viability determined in MTT assay; type: functional
BJ [5] = test: hTERT-SEAP (Human telomerase reverse transcriptase-SEAP) activity in immortalized hTERT-BJI at 300.0 uM concentration and level of cell viability determined in MTT assay; type: functional
BJ [6] = test: Compound was tested for human telomerase reverse transcriptase-SEAP (hTERT-SEAP) activity in immortalized hTERT-BJI at 3.0 uM concentration; type: functional
NCI-H1299 [7] = test: Compound was tested for human telomerase reverse transcriptase-SEAP (hTERT-SEAP) activity in non-small cell lung cancer H1299 cell at 30.0 uM concentration; type: functional
BJ [8] = test: Compound was tested for human telomerase reverse transcriptase-SEAP (hTERT-SEAP) activity in immortalized hTERT-BJI at 300.0 uM concentration; type: functional
BJ [9] = test: hTERT-SEAP (Human telomerase reverse transcriptase-SEAP) activity in immortalized hTERT-BJI at 3.0 uM concentration and level of cell viability determined in MTT assay; type: functional
NCI-H1299 [10] = test: hTERT-SEAP (Human telomerase reverse transcriptase-SEAP) activity in non-small cell lung cancer H1299 cell at 3.0 uM concentration and level of cell viability determined in MTT assay; type: functional
BJ [11] = test: hTERT-SEAP (Human telomerase reverse transcriptase-SEAP) activity in immortalized hTERT-BJI at 30.0 uM concentration and level of cell viability determined in MTT assay; type: functional
NCI-H1299 [12] = test: Compound was tested for human telomerase reverse transcriptase-SEAP (hTERT-SEAP) activity in non-small cell lung cancer H1299 cell at 3.0 uM concentration; type: functional
BJ [13] = test: Compound was tested for cytomegalovirus or (pPCMV-SEAP) activity in immortalized hTERT-BJ1 at 240 uM concentration; type: functional, Homo sapiens
BJ [14] = test: pPCMV-SEAP (cytomegalovirus-SEAP) activity in immortalized hTERT-BJ1 at 24 uM concentration and level of cell viability determined in MTT assay; type: functional, Homo sapiens
BJ [15] = test: pPCMV-SEAP (cytomegalovirus-SEAP) activity in immortalized hTERT-BJ1 at 240 uM concentration and level of cell viability determined in MTT assay; type: functional, Homo sapiens
NCI-H1299 [16] = test: Compound was tested for human telomerase reverse transcriptase-SEAP (hTERT-SEAP) activity in non-small cell lung cancer H1299 cell at 2.4 uM concentration; type: functional
BJ [17] = test: hTERT-SEAP (Human telomerase reverse transcriptase-SEAP) activity in immortalized hTERT-BJI at 240.0 uM concentration and level of cell viability determined in MTT assay; type: functional
NCI-H1299 [18] = test: hTERT-SEAP (Human telomerase reverse transcriptase-SEAP) activity in non-small cell lung cancer H1299 cell at 24 uM concentration and level of cell viability determined in MTT assay; type: functional
BJ [19] = test: Compound was tested for human telomerase reverse transcriptase-SEAP (hTERT-SEAP) activity in immortalized hTERT-BJI at 240.0 uM concentration; type: functional
BJ [20] = test: pPCMV-SEAP (cytomegalovirus-SEAP) activity in immortalized hTERT-BJ1 at 2.4 uM concentration and level of cell viability determined in MTT assay; type: functional, Homo sapiens
BJ [21] = test: Compound was tested for cytomegalovirus or (pPCMV-SEAP) activity in immortalized hTERT-BJ1 at 2.4 uM concentration; type: functional, Homo sapiens
BJ [22] = test: Compound was tested for human telomerase reverse transcriptase-SEAP (hTERT-SEAP) activity in immortalized hTERT-BJI at 24 uM concentration; type: functional
NCI-H1299 [23] = test: hTERT-SEAP (Human telomerase reverse transcriptase-SEAP) activity in non-small cell lung cancer H1299 cell at 240.0 uM concentration and level of cell viability determined in MTT assay; type: functional
NCI-H1299 [24] = test: Compound was tested for human telomerase reverse transcriptase-SEAP (hTERT-SEAP) activity in non-small cell lung cancer H1299 cell at 24 uM concentration; type: functional
BJ [25] = test: hTERT-SEAP (Human telomerase reverse transcriptase-SEAP) activity in immortalized hTERT-BJI at 24 uM concentration and level of cell viability determined in MTT assay; type: functional
BJ [26] = test: Compound was tested for cytomegalovirus or (pPCMV-SEAP) activity in immortalized hTERT-BJ1 at 24 uM concentration; type: functional, Homo sapiens
BJ [27] = test: Compound was tested for human telomerase reverse transcriptase-SEAP (hTERT-SEAP) activity in immortalized hTERT-BJI at 2.4 uM concentration; type: functional
NCI-H1299 [28] = test: Compound was tested for human telomerase reverse transcriptase-SEAP (hTERT-SEAP) activity in non-small cell lung cancer H1299 cell at 240.0 uM concentration; type: functional
NCI-H1299 [29] = test: hTERT-SEAP (Human telomerase reverse transcriptase-SEAP) activity in non-small cell lung cancer H1299 cell at 2.4 uM concentration and level of cell viability determined in MTT assay; type: functional
BJ [30] = test: pPCMV-SEAP (cytomegalovirus-SEAP) activity in immortalized hTERT-BJ1 at 2.8 uM concentration and level of cell viability determined in MTT assay; type: functional, Homo sapiens
BJ [31] = test: Compound was tested for cytomegalovirus or (pPCMV-SEAP) activity in immortalized hTERT-BJ1 at 28 uM concentration; type: functional, Homo sapiens
BJ [32] = test: Compound was tested for cytomegalovirus or (pPCMV-SEAP) activity in immortalized hTERT-BJ1 at 280 uM concentration; type: functional, Homo sapiens
NCI-H1299 [33] = test: hTERT-SEAP (Human telomerase reverse transcriptase-SEAP) activity in non-small cell lung cancer H1299 cell at 280.0 uM concentration and level of cell viability determined in MTT assay; type: functional
BJ [34] = test: Compound was tested for human telomerase reverse transcriptase-SEAP (hTERT-SEAP) activity in immortalized hTERT-BJI at 2.8 uM concentration; type: functional
NCI-H1299 [35] = test: hTERT-SEAP (Human telomerase reverse transcriptase-SEAP) activity in non-small cell lung cancer H1299 cell at 28 uM concentration and level of cell viability determined in MTT assay; type: functional
NCI-H1299 [36] = test: Compound was tested for human telomerase reverse transcriptase-SEAP (hTERT-SEAP) activity in non-small cell lung cancer H1299 cell at 280.0 uM concentration; type: functional
NCI-H1299 [37] = test: hTERT-SEAP (Human telomerase reverse transcriptase-SEAP) activity in non-small cell lung cancer H1299 cell at 2.8 uM concentration and level of cell viability determined in MTT assay; type: functional
NCI-H1299 [38] = test: Compound was tested for human telomerase reverse transcriptase-SEAP (hTERT-SEAP) activity in non-small cell lung cancer H1299 cell at 28.0 uM concentration; type: functional
BJ [39] = test: hTERT-SEAP (Human telomerase reverse transcriptase-SEAP) activity in immortalized hTERT-BJI at 280.0 uM concentration and level of cell viability determined in MTT assay; type: functional
BJ [40] = test: pPCMV-SEAP (cytomegalovirus-SEAP) activity in immortalized hTERT-BJ1 at 28 uM concentration and level of cell viability determined in MTT assay; type: functional, Homo sapiens
BJ [41] = test: Compound was tested for cytomegalovirus or (pPCMV-SEAP) activity in immortalized hTERT-BJ1 at 2.8 uM concentration; type: functional, Homo sapiens
BJ [42] = test: hTERT-SEAP (Human telomerase reverse transcriptase-SEAP) activity in immortalized hTERT-BJI at 2.8 uM concentration and level of cell viability determined in MTT assay; type: functional
BJ [43] = test: Compound was tested for human telomerase reverse transcriptase-SEAP (hTERT-SEAP) activity in immortalized hTERT-BJI at 28.0 uM concentration; type: functional
BJ [44] = test: pPCMV-SEAP (cytomegalovirus-SEAP) activity in immortalized hTERT-BJ1 at 280 uM concentration and level of cell viability determined in MTT assay; type: functional, Homo sapiens
NCI-H1299 [45] = test: Compound was tested for human telomerase reverse transcriptase-SEAP (hTERT-SEAP) activity in non-small cell lung cancer H1299 cell at 2.8 uM concentration; type: functional
BJ [46] = test: Compound was tested for human telomerase reverse transcriptase-SEAP (hTERT-SEAP) activity in immortalized hTERT-BJI at 280.0 uM concentration; type: functional
BJ [47] = test: hTERT-SEAP (Human telomerase reverse transcriptase-SEAP) activity in immortalized hTERT-BJI at 28.0 uM concentration and level of cell viability determined in MTT assay; type: functional
BJ [48] = test: hTERT-SEAP (Human telomerase reverse transcriptase-SEAP) activity in immortalized hTERT-BJI at 20 uM concentration and level of cell viability determined in MTT assay; type: functional
BJ [49] = test: Compound was tested for human telomerase reverse transcriptase-SEAP (hTERT-SEAP) activity in immortalized hTERT-BJI at 20 uM concentration; type: functional
BJ [50] = test: Compound was tested for human telomerase reverse transcriptase-SEAP (hTERT-SEAP) activity in immortalized hTERT-BJI at 200.0 uM concentration; type: functional
NCI-H1299 [51] = test: hTERT-SEAP (Human telomerase reverse transcriptase-SEAP) activity in non-small cell lung cancer H1299 cell at 20 uM concentration and level of cell viability determined in MTT assay; type: functional
NCI-H1299 [52] = test: (§1) hTERT-SEAP (Human telomerase reverse transcriptase-SEAP) activity in non-small cell lung cancer H1299 cell at 2.0 uM concentration and level of cell viability determined in MTT assay; type: functional
NCI-H1299 [53] = test: as §1; type: functional; remark: listed apart in the source
NCI-H1299 [54] = test: Compound was tested for human telomerase reverse transcriptase-SEAP (hTERT-SEAP) activity in non-small cell lung cancer H1299 cell at 20 uM concentration; type: functional
NCI-H1299 [55] = test: hTERT-SEAP (Human telomerase reverse transcriptase-SEAP) activity in non-small cell lung cancer H1299 cell at 200.0 uM concentration and level of cell viability determined in MTT assay; type: functional
NCI-H1299 [56] = test: Compound was tested for human telomerase reverse transcriptase-SEAP (hTERT-SEAP) activity in non-small cell lung cancer H1299 cell at 200.0 uM concentration; type: functional
BJ [57] = test: hTERT-SEAP (Human telomerase reverse transcriptase-SEAP) activity in immortalized hTERT-BJI at 200.0 uM concentration and level of cell viability determined in MTT assay; type: functional
NCI-H1299 [58] = test: Compound was tested for human telomerase reverse transcriptase-SEAP (hTERT-SEAP) activity in non-small cell lung cancer H1299 cell at 2.0 uM concentration; type: functional

CCSc1cccc2c1C(=O)c1cccc(SCC)c1C2=O
Relative viability (NCI-H1299 [1]): 25%
Relative SEAP activity (BJ [2]): 110%
Relative SEAP activity (NCI-H1299 [3]): 99%
Relative viability (NCI-H1299 [4]): 44%
Relative viability (BJ [5]): 34%
Relative SEAP activity (BJ [6]): 109%
Relative SEAP activity (NCI-H1299 [7]): 111%
Relative SEAP activity (BJ [8]): 104%
Relative viability (BJ [9]): 112%
Relative viability (NCI-H1299 [10]): 111%
Relative viability (BJ [11]): 98%
Relative SEAP activity (NCI-H1299 [12]): 134%

CC(C)(C)C(=O)Oc1cccc2c1C(=O)c1cccc(OC(=O)C(C)(C)C)c1C2=O
Relative SEAP activity (BJ [13]): 141%
Relative viability (BJ [14]): 104%
Relative viability (BJ [15]): 103%
Relative SEAP activity (NCI-H1299 [16]): 105%
Relative viability (BJ [17]): 100%
Relative viability (NCI-H1299 [18]): 97%
Relative SEAP activity (BJ [19]): 141%
Relative viability (BJ [20]): 115%
Relative SEAP activity (BJ [21]): 102%
Relative SEAP activity (BJ [22]): 165%
Relative viability (NCI-H1299 [23]): 70%
Relative SEAP activity (NCI-H1299 [24]): 78%
Relative viability (BJ [25]): 93%
Relative SEAP activity (BJ [26]): 114%
Relative SEAP activity (BJ [27]): 147%
Relative SEAP activity (NCI-H1299 [28]): 80%
Relative viability (NCI-H1299 [29]): 106%

CCC(=O)Oc1cccc2c1C(=O)c1cccc(OC(=O)CC)c1C2=O
Relative viability (BJ [30]): 114%
Relative SEAP activity (BJ [31]): 112%
Relative SEAP activity (BJ [32]): 138%
Relative viability (NCI-H1299 [33]): 87%
Relative SEAP activity (BJ [34]): 131%
Relative viability (NCI-H1299 [35]): 116%
Relative SEAP activity (NCI-H1299 [36]): 97%
Relative viability (NCI-H1299 [37]): 116%
Relative SEAP activity (NCI-H1299 [38]): 107%
Relative viability (BJ [39]): 93%
Relative viability (BJ [40]): 110%
Relative SEAP activity (BJ [41]): 101%
Relative viability (BJ [42]): 99%
Relative SEAP activity (BJ [43]): 152%
Relative viability (BJ [44]): 94%
Relative SEAP activity (NCI-H1299 [45]): 103%
Relative SEAP activity (BJ [46]): 161%
Relative viability (BJ [47]): 109%

O=C(CCc1ccccc1)Oc1cccc2c1C(=O)c1cccc(OC(=O)CCc3ccccc3)c1C2=O
Relative viability (BJ [48]): 106%
Relative SEAP activity (BJ [49]): 124%
Relative SEAP activity (BJ [50]): 110%
Relative viability (NCI-H1299 [51]): 101%
Relative viability (NCI-H1299 [52]): 111%
Relative viability (NCI-H1299 [53]): 111%
Relative SEAP activity (NCI-H1299 [54]): 98%
Relative viability (NCI-H1299 [55]): 54%
Relative SEAP activity (NCI-H1299 [56]): 89%
Relative viability (BJ [57]): 76%
Relative SEAP activity (NCI-H1299 [58]): 94%
